Reference: US20100105021A1, “STABILISATION OF BIOLOGICAL CELL MARKERS” (THE UNIVERSITY OF NOTTINGHAM, priority 2007, published 2010)

Key:
[1] = tested on: platelet activation marker CD62P (P-selectin) on platelets; test: Flow cytometric analysis of CD62P expression in diluted blood stimulated with a platelet stimulant and then fixed; type: cell-based, human; details: then fixed; for percentage of gated cells in P3 (% parent), CD62P: gate P3 set at 1% with IgG control, CD61-positive platelets; for median fluorescence of CD62P (P1 AND P2): whole population of CD61 positive cells, IgG control 2
Procedure: The inventors then set out to test the efficacy of the platelet stabilising composition by determining the expression levels of the platelet activation marker, CD62P (ie P-selectin), using flow cytometry.
Initially, an experiment was carried out in order to measure the level of expression of the platelet activation marker, CD62P, by flow cytometry in an IgG control sample. […] Platelets were gated in both P1 (top, centre in FIG. 1) and P2 (top, right in FIG. 1) in plots of a platelet identifier antibody, CD61-PerCP, against both side scatter (SSC) and forward scatter (FSC).
Approximately 3,000 CD61-positive platelet events were recorded. The CD61-positive cells were then drawn on a dot plot of CD62P against SSC (centre of FIG. 1). A frequency histogram of CD62P fluorescence against cell count was then used to quantify the percentage of cells from the parent population that were present in an interval gate P3 (bottom, left of FIG. 1). […] The gate was set at 1% using the appropriate IgG control sample and recorded in the statistics box (bottom right of FIG. 1). The median fluorescence of CD62P was also recorded for the whole population of CD61 positive cells (P1 AND P2).
Flow cytometric analysis was carried out to determine CD62P expression in an unstimulated sample of blood diluted with saline alone and then fixed.
Flow cytometric analysis was carried out to determine CD62P expression in a diluted sample of blood stimulated with adenosine diphosphate (ADP) and then fixed.
Flow cytometric analysis was carried out to determine CD62P expression in a diluted sample of blood stimulated with the thromboxane mimetic U46619 and then fixed.
Flow cytometric analysis was carried out to determine CD62P expression in a diluted sample of blood stimulated with thrombin receptor activating peptide (TRAP) and then fixed.

[2] = tested on: platelet activation marker CD62P; details: both groups where aspirin was added (healthy volunteers, patients on aspirin)
Procedure: Blood samples were obtained from (a) a group of healthy volunteers who were not being treated with aspirin, and (b) a group of patients who were on aspirin therapy. A CD62P stimulant combination of arachidonic acid and epinephrine, or arachidonic acid and epinephrine, in the presence of aspirin (as a control), were added to each blood sample for 4 minutes, followed by the stabilisation composition of the invention.

Compound | percentage of gated cells in P3 (% parent), CD62P [1] [%] | median fluorescence of CD62P (P1 AND P2) [1] | inhibition of CD62P expression [2]
Nc1ncnc2c1ncn2[C@@H]1O[C@H](COP(=O)(O)OP(=O)(O)O)[C@@H](O)[C@H]1O [ADP, adenosine diphosphate] | 70.8 | 365 | 
CCCCC[C@H](O)/C=C/[C@@H]1[C@@H](C/C=C\CCCC(=O)O)[C@H]2CO[C@@H]1C2 [U46619] | 95.3 | 1191 | 
CC(=O)Oc1ccccc1C(=O)O [aspirin] |  |  | completely inhibited
thrombin receptor activating peptide [TRAP] | 97.5 | 1646 | 
